Assay [1] concerns SARS-CoV-2 alpha variant (B.1.1.7 lineage). The class given is cell-based.
Assay [2] concerns SARS-CoV-2 USA-WA1/2020 virus. The class given is cell-based.

In the case of `C=Cc1c(C)c2cc3nc(c4c5[nH]c(cc6nc(cc1[nH]2)C(C)=C6CC)c(C)c5C(=O)[C@@H]4C(=O)OC)[C@@H](CCC(=O)O)[C@@H]3C` [Pheophorbide A], in assay [1], the “effect of photoactivation on inhibition of infection” value is reported as “enhanced with photoactivation” and the “inhibition of SARS-CoV-2 infection in culture” value was “significantly inhibits”. Also, the “inhibition of SARS-CoV-2 infection, summary of FIGS. 5-10” value in assay [2] is reported as “inhibits SARS-CoV-2 infection in a dose-dependent manner”.

For the origin of these results see patent US20240366564A1, “Use of Chlorophyll Derivatives for the Treatment of SARS-CoV-2 Infection” (priority 2021, published 2024).
